# Key:
# tubulin = assay: Tubulin polymerization inhibition; format: biochemical, mammalian; settings: 100 μM
# Mtb H37Rv = Mtb H37Rv growth inhibition; format: cell-based, Mycobacterium tuberculosis
SMILES,Tubulin Polymerization inhibition (tubulin) [% inhibition 100 μM],IC90 (H37Rv) fold less active than lead compound 2 (Mtb H37Rv) [fold],"IC90 (Mtb H37Rv; Mycobacterium tuberculosis, H37RV, read-out: Mtb H37Rv IC90, extrapolated from 10 point dose response curve) [µM]"
"CCOC(=O)Nc1cc(NCCCCN(CC)CC)c2nc(-c3ccccc3)c(-c3ccccc3)nc2n1 [Compound 17, Ethyl (8-((4-(diethylamino)butyl)amino)-2,3-diphenylpyrido[2,3-b]pyrazin-6-yl)carbamate]",40,,
"CCOC(=O)Nc1nc(NC(C)CCCN(CC)CC)c2c(n1)SC(c1ccccc1)C(c1ccccc1)=N2 (centres unmarked) [Compound 37, Ethyl (4-((5-(diethylamino)pentan-2-yl)amino)-6,7-diphenyl-7H-pyrimido[4,5-b][1,4]thiazin-2-yl) carbamate]",,10,
"CCOC(=O)Nc1nc(NC(C)CCCN(CC)CC)c2nc(-c3ccccc3)c(-c3ccccc3)nc2n1 (centres unmarked) [Compound 2, reference compound]",24,,
"CCOC(=O)Nc1nc(NCCCCN(CC)CC)c2c(n1)SC(c1ccccc1)C(c1ccccc1)=N2 (centres unmarked) [Compound 38, Ethyl (4-((4-(diethylamino)butyl)amino)-6,7-diphenyl-7H-pyrimido[4,5-b][1,4]thiazin-2-yl)carbamate]",,10,18.5
